Legend:
[1] = tested on: human lung fibroblasts; assay: HIV-1 RT based cellular dNTP assay; type: cell-based
Excerpt: A ^32P labeled 18-mer annealed to a 19-mer template was extended by HIV-1 RT with known amounts of TTP. Percent of the primer extension with each dNTP amount was plotted (B).
A highly sensitive dNTP assay capable of monitoring dNTP levels in primary cells has been described (Diamond et al., J. Biol. Chem. 279:51545-53 2004). It has been difficult to determine dNTP levels in terminally differentiated primary cells due to the lack of highly sensitive dNTP assays. […] This assay used a ^32P-labeled 18-mer primer annealed to a 19-mer template, allowing incorporation of one of four dNTPs, generating 19-mer products (FIG. 2A). Indeed, this assay is ˜250 times more sensitive than the HPLC based assay. With this assay, dNTP concentrations in primary human macrophages, CD4+ T cells, and human fibroblasts were determined (Table 3). This assay also allowed monitoring of fluctuations of cellular dNTP contents, in different cell types, or under different phases of the cell cycle or culture conditions. Primary cells such as human primary lung fibroblast cells (HFL culture with 10% serum) have 5-10 lower dNTP content than tumor cells such as PANC1 cells (Table 4). Treatment with deoxynucleoside (dNs) enhanced cellular dNTP content in human lung fibroblasts (cultured with 10% serum) by 80 fold (Table 4).

[2] = tested on: BALB/c mice; assay: VPA effect on Ad-CMV-Luc gene expression in vivo; settings: Ad-CMV-Luc intramuscular, VPA six days, biophotonic imaging
Procedure: In FIG. 6A luciferase-encoding adenovirus vector (Ad.CMV-Luc) was inoculated into the thigh muscle of BALB/c mice. These animals (3/group) were then treated with either VPA or with vehicle alone for six days, by twice-daily i.p. injection. Representative images obtained with the IVIS CCD camera at day 2 and 6 post Ad-infection are presented. In FIG. 6B the levels of adenovirally vectored luciferase gene expression in the mice shown in panel A were quantitated at day 2 and 6 post infection using the Living Image® 2.20.1 software (Xenogen, Alameda, Calif.).
[…] of a luciferase-expressing adenovirus vector (Ad-CMV-Luc) was inoculated into BALB/c mice, via an intramuscular route. These animals were then treated with either VPA or with vehicle alone for six days, and the expression of luciferase was analyzed over time using biophotonic imaging.

[3] = tested on: N2A neuroblastoma cells; assay: VPA effect on Ad.CMV-LacZ gene expression in vitro; type: cell-based
Procedure: FIG. 5A is a graph showing N2A cells transduced by Ad.CMV-LacZ, and then exposed to varying concentrations of VPA (as indicated). Twenty-four hours later, LacZ expression was analyzed. FIG. 5B is a graph showing N2A cells cultured on poly-D-lysine coated 12-well plates in NB/B27 medium, and transduced with Ad.CMV-LacZ at a multiplicity of infection (MOI) of 10. Two hours thereafter, the culture medium was replaced with medium containing 1 mM VPA or vehicle (control). The medium was changed every 24-hours thereafter, and cell aliquots were harvested at the indicated time points (1, 3, 5, 7, 10 and 12 days post infection). LacZ expression was then measured in the lysates.
VPA enhanced virally-vectored gene expression, using a panel of gene delivery platforms that include recombinant, replication-defective type 5 adenovirus vectors. […] Similar effects were also observed in several primary cells transduced by Ad-CMV-LacZ (Fan, et al., J. Virol. Methods 125:23-33 (2005)).

| Compound | enhancement of cellular dNTP content ([1]; human lung fibroblasts cultured with 10% serum) [fold] | [dNTP] ([1]; lung fibroblasts (+dN)) | [dNTP] relative to untreated lung fibroblasts (1x) ([1]; lung fibroblasts (+dN)) [x] | expression of luciferase compared to untreated mice [2] | reporter gene (LacZ) expression ([3]; Ad-CMV-LacZ transduced N2A cells, varying VPA, FIG. 5A) | duration of increased expression of the delivered gene post VPA-treatment ([3]; VPA 1 mM, FIG. 5B) |
| --- | --- | --- | --- | --- | --- | --- |
| deoxynucleosides [dNs] | 80 | 20~90 μM | ~80 | – | – | – |
| CCCC(CCC)C(=O)O [VPA, Valproic acid] | – | – | – | increased expression of luciferase | dose-dependent increase | more than 12 days |

Reference: patent publication US20100316609A1, “Conditionally Replicating Viruses for Cancer Therapy” (priority 2006, published 2010)
